Literature values, collected in patent US12156864B2, “Analogs of cyclobenzaprine and amitryptilene” (TONIX PHARMACEUTICALS HOLDING CORP, priority 2017, dated 2024).

Experiments:
[1] = tested on: veterans and males with PTSD
[2] = molecular target: serotonin-2A (5-HT2A) receptor (Homo sapiens, UniProt P28223)
fibromyalgia patients = conditions: cyclobenzaprine 10 to 40 mg, 12-week period
[3] = molecular target: histaminergic1 (H1) receptor (Homo sapiens, UniProt P35367)
patients = conditions: oral doses sufficient to treat PTSD-associated sleep disorders
[4] = humans; metabolite formed via pathway b (N-dealkylation)
PTSD combat subsample = conditions: combat subsample (N=77) of a pooled analysis

serotonin-2A (5-HT2A) receptor, sequence (P28223 whole entry, species assumed): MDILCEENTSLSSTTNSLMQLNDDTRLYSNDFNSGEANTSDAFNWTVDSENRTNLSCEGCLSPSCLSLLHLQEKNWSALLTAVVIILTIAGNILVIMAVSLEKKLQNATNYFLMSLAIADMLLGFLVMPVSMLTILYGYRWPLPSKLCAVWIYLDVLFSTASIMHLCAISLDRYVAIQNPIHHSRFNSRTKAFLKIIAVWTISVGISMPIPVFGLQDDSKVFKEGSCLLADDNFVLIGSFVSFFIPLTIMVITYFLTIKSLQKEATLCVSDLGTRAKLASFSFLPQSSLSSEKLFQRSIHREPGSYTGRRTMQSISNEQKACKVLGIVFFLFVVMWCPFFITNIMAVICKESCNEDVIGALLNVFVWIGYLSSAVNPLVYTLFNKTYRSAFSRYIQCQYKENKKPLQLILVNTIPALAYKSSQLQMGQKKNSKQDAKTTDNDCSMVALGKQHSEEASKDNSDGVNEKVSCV
histaminergic1 (H1) receptor, sequence (P35367 whole entry): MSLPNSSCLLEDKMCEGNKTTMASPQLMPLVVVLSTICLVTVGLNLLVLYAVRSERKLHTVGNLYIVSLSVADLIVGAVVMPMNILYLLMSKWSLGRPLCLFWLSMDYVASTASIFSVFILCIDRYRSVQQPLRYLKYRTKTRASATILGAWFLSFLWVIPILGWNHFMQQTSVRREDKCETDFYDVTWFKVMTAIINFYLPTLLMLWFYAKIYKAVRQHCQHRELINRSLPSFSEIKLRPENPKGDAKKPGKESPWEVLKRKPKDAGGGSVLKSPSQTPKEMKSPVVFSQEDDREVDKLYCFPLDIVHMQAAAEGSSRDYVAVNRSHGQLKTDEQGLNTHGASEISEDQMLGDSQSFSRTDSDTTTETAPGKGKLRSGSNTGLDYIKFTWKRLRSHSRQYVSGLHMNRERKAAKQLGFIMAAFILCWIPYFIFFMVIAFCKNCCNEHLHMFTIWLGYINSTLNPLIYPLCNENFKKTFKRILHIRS

For CN[C@H]1CC[C@@H](c2ccc(Cl)c(Cl)c2)c2ccccc21 [Sertraline], the “efficacy in PTSD” value [1] is listed as “failed to show efficacy”.

In the case of CN(C)CCC=C1c2ccccc2C=Cc2ccccc21 [cyclobenzaprine, 3-(5H-dibenzo[a,d]cyclohepten-5-ylidene)-N,N-dimethyl-1-propanamine], the “binding and antagonist activity at 5-HT2A receptor” value [2] is listed as “high affinity binding and antagonist activity”, the “quality of sleep and pain score” value (fibromyalgia patients) is listed as “significantly improved” and the “total number of tender points and muscle tightness” value (fibromyalgia patients) is listed as “reduction”. For the same compound, the “binding and antagonist activity at H1 receptor” value [3] was “high affinity binding and antagonist activity”, the next-day side effect (patients) was “drowsiness the next day” and the “binding and antagonist activity at α1-adrenergic receptor” value (α1-adrenergic receptor) was “high affinity binding and antagonist activity”.

For CNCCC=C1c2ccccc2C=Cc2ccccc21 [nor-cyclobenzaprine], the half-life [4] is listed as about 48 h.

In the case of COc1ccc(C(CN(C)C)C2(O)CCCCC2)cc1 (stereo not drawn) [venlafaxine ER], the “effect on PTSD or disability” value (PTSD combat subsample) is listed as “no effect”.
